In US10280166B2, “2-(1H-indazol-3-yl)-3H-imidazo[4,5-B]pyridine and therapeutic uses thereof” (Samumed, LLC, priority 2014, dated 2019) one finds IC50 and EC50 data, which are given here for eleven molecules.

Experiment [1] has as its system Wnt activity (SW480 colon carcinoma cells stably expressing the Sp5-Luc reporter gene). The experiment is described as follows: Sp5-Luc reporter gene screening assay for Wnt activity in SW480 cells. It is filed as cell-based. Conditions: Homo sapiens, 42 h incubation, luminescence. In outline: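 SW480 cells stably carrying an Sp5 promoter (eight TCF/LEF sites)-luciferase reporter were plated overnight in 10% FCS medium. BrightGlo luminescence was normalised to DMSO wells, and IC50 was obtained by four-parameter fit.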

Experiment [2] concerns primary human fibroblasts derived from IPF patients (LL29 cells). The experiment is described as follows: Inhibition of fibrosis (αSMA) in TGF-β1 treated primary human fibroblasts from IPF patients. The class given is cell-based. To be noted: Fibroblast, 96 h, TGF-β1 20 ng/mL, 4 days, % αSMA positive cells. The text has this: The above synthesized compounds were screened using primary human fibroblasts (derived from IPF patients) treated with TGF-β1 to determine their ability to inhibit the fibrotic process.
Primary human fibroblasts derived from IPF patients (LL29 cells) [^1Xiaoqiu Liu, et.al., “Fibrotic Lung Fibroblasts Show Blunted Inhibition by cAMP Due to Deficient cAMP Response Element-Binding Protein Phosphorylation”, Journal of Pharmacology and Experimental Therapeutics (2005), 315(2), 678-687; ^2Watts, K. L., et.al., “RhoA signaling modulates cyclin D1 expression in human lung fibroblasts; implications for idiopathic pulmonary fibrosis”, Respiratory Research (2006), 7(1), 88] were obtained from American Type Culture Collection (ATCC) and expanded in F12 medium supplemented with 15% Fetal Bovine Serum and Penicillin/Streptomycin.
Each compound was dissolved in DMSO as a 10 mM stock and used to prepare compound source plates. Serial dilution (1:2, 11-point dose-response curves from 10 μM to 1.87 nM) and compound transfer was performed using the ECHO 550 (Labcyte, Sunnyvale, Calif.) into 384-well clear bottom assay plates (Greiner Bio-One) with appropriate DMSO backfill for a final DMSO concentration of 0.1%. LL29 cells were plated at 1,500 cells/well in 80 μl/well F12 medium supplemented with 1% Fetal Bovine Serum. One hour after addition of the cells, TGF-β1 (Peprotech; 20 ng/mL) was added to the plates to induce fibrosis (ref. 1 and 2 above). Wells treated with TGF-β1 and containing DMSO were used as controls. Cells were incubated at 37° C. and 5% CO2 for 4 days. Following incubation for 4 days, SYTOX green nucleic acid stain (Life Technologies [Thermo Fisher Scientific]) was added to the wells at a final concentration of 1 uM and incubated at room temperature for 30 min. Cells were then fixed using 4% formaldehyde (Electron Microscopy Sciences), washed 3 times with PBS followed by blocking and permeabilization using 3% Bovine Serum Albumin (BSA; Sigma) and 0.3% Triton X-100 (Sigma) in PBS. Cells were then stained with antibody specific to α-smooth muscle actin (αSMA; Abcam) (ref. 1 and 2 above) in 3% Bovine Serum Albumin (BSA; Sigma) and 0.3% Triton X-100 (Sigma) in PBS, and incubated overnight at 4° C. Cells were then washed 3 times with PBS, followed by incubation with Alexa Flor-647 conjugated secondary antibody (Life Technologies [Thermo Fisher Scientific]) and DAPI at room temperature for 1 hour. Cells were then washed 3 times with PBS and plates were sealed for imaging. αSMA staining was imaged by excitation at 630 nm and emission at 665 nm and quantified using the Compartmental Analysis program on the CellInsight CX5 (Thermo Scientific). Dead or apoptotic cells were excluded from analysis based on positive SYTOX green staining. % of total cells positive for αSMA were counted in each well and normalized to the average of 11 wells treated with TGF-β1 on the same plate using Dotmatics' Studies Software. The normalized averages (fold change over untreated) of 3 replicate wells for each compound concentration were used to create dose-responses curves and EC50 values were calculated using non-linear regression curve fit in the Dotmatics' Studies Software. The EC50 values are reported.

Usually IC50 stands for the midpoint of a concentration-inhibition curve. A lower IC50 goes with greater potency. Usually EC50 stands for the concentration that produces a half-maximal response. As to `Cc1ccncc1-c1ccc2[nH]nc(-c3nc4cccnc4[nH]3)c2c1` [Compound 239, 2-(5-(4-Methylpyridin-3-yl)-1H-indazol-3-yl)-3H-imidazo[4,5-b]pyridine], in experiment [1], the IC50 was determined as 4100 nM. The molecule also came in with an EC50 in experiment [2] of 0.171 nM.
For `CC(C)Nc1cncc(-c2ccc3[nH]nc(-c4nc5c(-c6cc(F)cc(NCCN(C)C)c6)ccnc5[nH]4)c3c2)c1` [Compound 454, N^1-(3-Fluoro-5-(2-(5-(5-(isopropylamino)pyridin-3-yl)-1H-indazol-3-yl)-3H-imidazo[4,5-b]pyridin-7-yl)phenyl)-N^2,N^2-dimethylethane-1,2-diamine], in that order: 51.7 nM and 0.019 nM.
For `O=C(Nc1cncc(-c2ccc3[nH]nc(-c4nc5cccnc5[nH]4)c3c2)c1)C1CCCCC1` [Compound 256, N-(5-(3-(3H-Imidazo[4,5-b]pyridin-2-yl)-1H-indazol-5-yl)pyridin-3-yl)cyclohexanecarboxamide], in that order: 66.3 nM and 0.401 nM.
For `O=C(Nc1cncc(-c2ccc3[nH]nc(-c4nc5c(-c6ccoc6)ccnc5[nH]4)c3c2)c1)C1CCC1` [Compound 306, N-(5-(3-(7-(Furan-3-yl)-3H-imidazo[4,5-b]pyridin-2-yl)-1H-indazol-5-yl)pyridin-3-yl)cyclobutanecarboxamide] the same measures were 6.7 nM and 0.527 nM.
The molecule `Fc1cccc(-c2ccnc3[nH]c(-c4n[nH]c5ccc(-c6cnccn6)cc45)nc23)c1` [Compound 1890, 7-(3-Fluorophenyl)-2-(5-(pyrazin-2-yl)-1H-indazol-3-yl)-3H-imidazo[4,5-b]pyridine] yielded an IC50 in experiment [1] of 39 nM. In experiment [2], a half-maximal response (EC50) required 0.167 nM.
`Fc1ccc(-c2ccnc3[nH]c(-c4n[nH]c5ccc(-c6cncc(CN7CCCC7)c6)cc45)nc23)cc1` [Compound 40, 7-(4-Fluorophenyl)-2-(5-(5-(pyrrolidin-1-ylmethyl)pyridin-3-yl)-1H-indazol-3-yl)-3H-imidazo[4,5-b]pyridine] had an IC50 in experiment [1] of 4030 nM. In experiment [2], this molecule showed an EC50 of 0.009 nM.
Consider `Cc1cn(-c2ccnc3[nH]c(-c4n[nH]c5ccc(-c6cncc(NC(=O)C(C)(C)C)c6)cc45)nc23)cn1` [Compound 190, N-(5-(3-(7-(4-Methyl-1H-imidazol-1-yl)-3H-imidazo[4,5-b]pyridin-2-yl)-1H-indazol-5-yl)pyridin-3-yl)pivalamide], for which the IC50 in experiment [1] is 7.4 nM. In experiment [2], this molecule came in with an EC50 of 0.009 nM.
For `c1cncc(-c2ccnc3[nH]c(-c4n[nH]c5ccc(-c6cncc(CN7CCCCC7)c6)cc45)nc23)c1` [Compound 93, 2-(5-(5-(Piperidin-1-ylmethyl)pyridin-3-yl)-1H-indazol-3-yl)-7-(pyridin-3-yl)-3H-imidazo[4,5-b]pyridine], in that order: more than 10000 nM and 0.016 nM.
For `c1ccc(-c2ccnc3[nH]c(-c4n[nH]c5ccc(-c6cncc(CNCC7CCCC7)c6)cc45)nc23)nc1` [Compound 154, 1-Cyclopentyl-N-((5-(3-(7-(pyridin-2-yl)-3H-imidazo[4,5-b]pyridin-2-yl)-1H-indazol-5-yl)pyridin-3-yl)methyl)methanamine] the same measures were 1460 nM and 9.99 nM.
As for `Cc1ncc(-c2ccc3[nH]nc(-c4nc5c(-c6cccc(F)c6)ccnc5[nH]4)c3c2)n1C` [Compound 1877, 2-(5-(1,2-Dimethyl-1H-imidazol-5-yl)-1H-indazol-3-yl)-7-(3-fluorophenyl)-3H-imidazo[4,5-b]pyridine], the IC50 in experiment [1] is more than 10000 nM. The same molecule had an EC50 in experiment [2] of 9.99 nM.
For `Fc1ccc(-c2ccnc3[nH]c(-c4n[nH]c5ccc(-c6cncc(CN7CCCC7)c6)cc45)nc23)s1` [Compound 352, 7-(5-Fluorothiophen-2-yl)-2-(5-(5-(pyrrolidin-1-ylmethyl)pyridin-3-yl)-1H-indazol-3-yl)-3H-imidazo[4,5-b]pyridine], in that order: 13.2 nM and 0.125 nM.
